Experimental data taken from patent publication US20110045100A1, “Antimalarial Quinolines and Methods of Use Thereof” (GEORGETOWN UNIVERSITY, priority 2008, published 2011).
Blank lines part the entries; values can stand above or below the molecule they belong to.

Key:
[1] = test system: CQS and CQR strains of P. falciparum; details: cited from earlier work; for antimalarial activity against certain CQS and CQR strains relative to chloroquine, reported by Jensen: diastereomeric mixtures
[2] = test system: Dd2 (chloroquine resistant strain of P. falciparum); test: SYBR Green I antiplasmodial assay, strain Dd2; type: cell-based, Plasmodium falciparum; details: for activity against the CQ resistant strain Dd2 in comparison with CQ: compared with CQ
Text: (§1) Bennett T. N.; Paguio, M.; Gligorijevic, B.; Seudieu, C.; Kosar, A. D.; Davidson, E.; Roepe, P. D. Novel, rapid, and inexpensive cell-based quantification of antimalarial drug efficacy. Antimicrob. Agents Chemother. 2004, 48, 1807-1810; Smilkstein, M.; Sriwilaijaroen, N.; Kelly, J. X.; Wilairat, P.; Riscoe, M. Simple and inexpensive fluorescence-based technique for high-throughput antimalarial drug screening. Antimicrob. Agents Chemother. 2004, 48, 1803-1806; and Johnson, J. D.; Dennull, R. A.; Gerena, L.; Lopez-Sanchez, M.; Roncal, N. E.; Waters, N.C. Assessment and continued validation of the malaria SYBR green I-based fluorescence assay for use in malaria drug screening. Antimicrob. Agents Chemother. 2007, 51, 1926-1933. […] Drake, N. L.; Creech, H. J.; Garman, J. A.; Haywood, S. T.; Peck, R. M.; van Hook, J. O.; Walton, E. Synthetic antimalrials. The preparation of certain 4-aminoquinolines. J. Am. Chem. Soc. […] Trans. R. Soc. Trop. Med. Hyg. […] J. Parasitol. 1983, 69, 97-105. The selectivity index provides a quantitative measure of the antimalarial activity against CQR strains relative to that against sensitive strains and thus indicates promising drug discovery leads. […] This can be combined with the introduction of a third basic amino function which should further favor accumulation of the drug within the acidic food vacuole of the parasite.
The antiplasmodial activity of these compounds was measured versus a CQS (HB3) and a CQR (Dd2) strain using a standardized, inexpensive assay based on SYBR Green I intercalation. Bennett T. N.; Paguio, M.; Gligorijevic, B.; Seudieu, C.; Kosar, A. D.; Davidson, E.; Roepe, P. D. Antimicrob. Agents Chemother. 2004, 48, 1807-1810; Smilkstein, M.; Sriwilaijaroen, N.; Kelly, J. X.; Wilairat, P.; Riscoe, M. Antimicrob. Agents Chemother. 2004, 48, 1803-1806; and Johnson, J. D.; Dennull, R. A.; Gerena, L.; Lopez-Sanchez, M.; Roncal, N. E.; Waters, N.C. Antimicrob. Agents Chemother. 2007, 51, 1926-1933. […] De, D.; Krogstad, F. M.; Cogswell, F. B.; Krogstad, D. J. Am. J. Trop. Med. Hyg. 1996, 55, 579-583. […] The basic tertiary amino function in the side chain is commonly believed to be crucial for the accumulation of the drug within the acidic food DV.
(§2) Drug activities were assessed and IC50 were quantified essentially as described previously. Delarue, S.; Girault, S.; Maes, L.; Debreu-Fontaine, M. A.; Labaeid, M.; Grellier, P.; Sergheraert, C. Synthesis and in vitro and in vivo antimalarial activity of new 4-anilinoquinolines. J. Med. Chem. 2001, 44, 2827-2833; and O'Neill, P. M.; Willock, D. J.; Hawley, S. R.; Bray, P. G.; Storr, R. C.; Ward, S. A.; Park, B. K. Synthesis, antimalarial activity, and molecular modeling of tebuquine analogues. J. Med. Chem. 1997, 40, 437-448. The aminoquinolines were diluted using complete media under sterile conditions and plated in a 96 well plate format. Sorbitol synchronized cultures were utilized with >95% of the parasites at the ring stage. Cultures were diluted to give a working stock of 0.5% parasitemia and 2% hematocrit (final hematocrit 1% & 0.5% Parasitemia). The plates were incubated for 72 h at 37° C. After 72 h, 50 μL of 10×SYBR green I dye was added to each well, and the plate was incubated for 1 h at 37° C. Fluorescence was measured at 530 nm (490 nm excitation) using a spectra geminiEM plate reader. Data analysis was performed using sigma plot 9.0 software after downloading data in Excel format.

[3] = test system: FCB (CQR strain of P. falciparum); test: SYBR Green I antiplasmodial assay, strain FCB; type: cell-based, Plasmodium falciparum; details: compared with CQ
Text: as §1, §2

[4] = test system: CQS (HB3, GCO3) and CQR (Dd2, FCB) strains of P. falciparum; test: SYBR Green I antiplasmodial assay, several CQS and CQR strains; type: cell-based, Plasmodium falciparum; details: for activity vs. both CQR and CQS strains relative to 93: FIG. 23
Text: as §1
Bennett T. N.; Paguio, M.; Gligorijevic, B.; Seudieu, C.; Kosar, A. D.; Davidson, E.; Roepe, P. D. Novel, rapid, and inexpensive cell-based quantification of antimalarial drug efficacy. Antimicrob. Agents Chemother. 2004, 48, 1807-1810; Smilkstein, M.; Sriwilaijaroen, N.; Kelly, J. X.; Wilairat, P.; Riscoe, M. Simple and inexpensive fluorescence-based technique for high-throughput antimalarial drug screening. Antimicrob. Agents Chemother. 2004, 48, 1803-1806; and Johnson, J. D.; Dennull, R. A.; Gerena, L.; Lopez-Sanchez, M.; Roncal, N. E.; Waters, N.C. Assessment and continued validation of the malaria SYBR green I-based fluorescence assay for use in malaria drug screening. Antimicrob. Agents Chemother. 2007, 51, 1926-1933.
Drug activities were assessed and IC50 were quantified essentially as described previously. Delarue, S.; Girault, S.; Maes, L.; Debreu-Fontaine, M. A.; Labaeid, M.; Grellier, P.; Sergheraert, C. Synthesis and in vitro and in vivo antimalarial activity of new 4-anilinoquinolines. J. Med. Chem. 2001, 44, 2827-2833; and O'Neill, P. M.; Willock, D. J.; Hawley, S. R.; Bray, P. G.; Storr, R. C.; Ward, S. A.; Park, B. K. Synthesis, antimalarial activity, and molecular modeling of tebuquine analogues. J. Med. Chem. 1997, 40, 437-448.

SMILES: CCN(CC)CCNc1ccnc2cc(Cl)ccc12 [compound 86, N-(7-Chloro-4-quinolyl)-N′,N′-diethyl-1,2-diaminoethane]
IC50 vs. CQR strains, earlier reports [1]: substantially lower IC50

SMILES: CCN(CC)CCCN(CC)CCNc1ccnc2cc(Cl)ccc12 [5a, N-(7-Chloro-4-quinolyl)-N-ethyl-N-(3-diethylaminopropyl)-1,2-diaminoethane]
activity against the CQ resistant strain Dd2 in comparison with CQ [2]: clearly superior activity
potency against FCB in comparison with CQ [3]: significantly more potent

SMILES: CCN(CCNc1ccnc2cc(Cl)ccc12)CCNS(=O)(=O)c1cccc2cccnc12 [compound 33]
activity against Dd2 in words [2]: relatively high activity

SMILES: CCN(CC)CCCCC(CCCCN(CC)CC)Oc1ccnc2cc(Cl)ccc12 [compound 103, 7-Chloro-4-(1′,9′-bis(diethylamino)-5′-nonoxy)quinoline]
activity vs. both CQR and CQS strains relative to 93 [4]: improved activity

SMILES: CCNCCCC(C)Nc1ccnc2cc(Cl)ccc12 (centres unmarked) [desethyl CQ, reference compound]
activity vs. some CQR strains relative to CQ, previous studies ([1]; some CQR strains): lower activity

SMILES: CCN(CC)CC(CN(CC)CC)Oc1ccnc2cc(Cl)ccc12 [compound 101, 7-Chloro-4-(1′,3′-bis(diethylamino)-2′-propoxy)quinoline]
activity vs. both CQR and CQS strains relative to 93 [4]: significantly less active

SMILES: CC(C)NC1CCC(Nc2ccnc3cc(Cl)ccc23)CC1 (centres unmarked) [17b, N-(7-Chloro-4-quinolyl)-N′-isopropyl-1,4-diaminocyclohexane]
activity against the CQ resistant strain Dd2 in comparison with CQ [2]: clearly superior activity
potency against FCB in comparison with CQ [3]: significantly more potent

SMILES: CC(C)NC1CCCC(Nc2ccnc3cc(Cl)ccc23)C1 (centres unmarked) [16b, N-(7-Chloro-4-quinolyl)-N′-isopropyl-1,3-diaminocyclohexane]
activity against the CQ resistant strain Dd2 in comparison with CQ [2]: clearly superior activity

SMILES: CCN(CC)CCCN(CCCN)c1ccnc2cc(Cl)ccc12 [4b, N-(7-Chloro-4-quinolyl)-N-(3-diethylaminopropyl)-1,3-diaminopropane]
activity against the CQ resistant strain Dd2 in comparison with CQ [2]: clearly superior activity
potency against FCB in comparison with CQ [3]: significantly more potent

SMILES: CCNC1CCC(N(CC)c2ccnc3cc(Cl)ccc23)CC1 (centres unmarked) [17a, N-(7-Chloro-4-quinolyl)-N,N′-diethyl-1,4-diaminocyclohexane]
activity against the CQ resistant strain Dd2 in comparison with CQ [2]: clearly superior activity
potency against FCB in comparison with CQ [3]: significantly more potent
antimalarial activity against certain CQS and CQR strains relative to chloroquine, reported by Jensen [1]: higher antimalarial activity

IC50 ([4]; Plasmodium falciparum, read-out: IC50 vs. CQR parasites): ~1000 nM
SMILES: CCN(CC)CCCCCOc1ccnc2cc(Cl)ccc12 [compound 94, O-(7-Chloro-4-quinolyl)-5-(N,N-diethylamino)pentanol]

SMILES: CCNCCNc1ccnc2cc(Cl)ccc12 [compound 81, N-(7-Chloro-4-quinolyl)-N′-ethyl-1,2-diaminoethane]
IC50 vs. CQR strains, earlier reports [1]: high IC50

SMILES: CCN(CC)CCCN(CC)CCCCCNc1ccnc2cc(Cl)ccc12 [5d, N-(7-Chloro-4-quinolyl)-N-ethyl-N-(3-diethylaminopropyl)-1,5-diaminopentane]
activity against the CQ resistant strain Dd2 in comparison with CQ [2]: clearly superior activity
potency against FCB in comparison with CQ [3]: significantly more potent

SMILES: CCNC1CCCC(N(CC)c2ccnc3cc(Cl)ccc23)C1 (centres unmarked) [16a, N-(7-Chloro-4-quinolyl)-N,N′-diethyl-1,3-diaminocyclohexane]
activity against the CQ resistant strain Dd2 in comparison with CQ [2]: clearly superior activity
antimalarial activity against certain CQS and CQR strains relative to chloroquine, reported by Jensen [1]: higher antimalarial activity

SMILES: CCNCCCNc1ccnc2cc(Cl)ccc12 [compound 82, N-(7-Chloro-4-quinolyl)-N′-ethyl-1,3-diaminopropane]
IC50 vs. CQR strains, earlier reports [1]: high IC50

SMILES: NCCCN(C(=O)c1ccc(F)cc1NCc1ccccc1)c1ccnc2cc(Cl)ccc12 [compound 53, N-(7-Chloro-4-quinolyl)-N-(2-benzylamino-4-fluorobenzoyl)-1,3-diaminopropane]
activity against Dd2 compared with HB3 [2]: significantly more active against Dd2 than HB3

SMILES: CCN(CC)CCCN(CC)CCCNc1ccnc2cc(Cl)ccc12 [5b, N-(7-Chloro-4-quinolyl)-N-ethyl-N-(3-diethylaminopropyl)-1,3-diaminopropane]
activity against the CQ resistant strain Dd2 in comparison with CQ [2]: clearly superior activity
potency against FCB in comparison with CQ [3]: significantly more potent

SMILES: CCN(CC)CCCNc1ccnc2cc(Cl)ccc12 [compound 87, N-(7-Chloro-4-quinolyl)-N′,N′-diethyl-1,3-diaminopropane]
IC50 vs. CQR strains, earlier reports [1]: substantially lower IC50
